Source: paper PMC6100582 (Molecules : A Journal of Synthetic Chemistry and Natural …, 2018)
≈ marks a conversion by molar mass, not a printed value. Where two headings read alike, the source gives them in different places.

Tests used:
Sindbis Virus = assay: microbe, parasite or virus in culture; assay type: cell-based; settings: Vero
Punta Toro Virus = assay: microbe, parasite or virus in culture; assay type: cell-based; settings: Vero cells
[1] = system: Streptococcus pneumonia MFBF 10373; assay: Minimum biofilm eradication assay; assay type: cell-based, Streptococcus pneumoniae
Description: (§1) MBECs of fumardiamides 4a–f and succindiamides 5a–f were determined as follows. Each well (96-well plate) was filled with 100 µl of bacterial (10^7 CFU/mL) or yeast (5 × 10^6 CFU/mL) suspension. When the inhibition of yeast biofilm formation was tested, the wells were pre-treated with fetal bovine serum (FBS) (250 µl per well). Negative controls contained broth only. Positive controls were performed using standard antimicrobial drugs gentamycin (Gen) and Amph, respectively. […] Following incubation period, each well was aspirated, washed three times and vigorously shaken to remove all non-adherent bacteria/yeast. The remaining attached cells were fixed with methanol (15 min) and the plates were left to dry overnight. Formed biofilm was stained with crystal violet (1%, 5 min). Excess stain was rinsed by placing the plate under running tap water and the plates were left to dry. Adherent cells were solubilized using ethanol. The absorbance was read at 570 nm. The MBEC value represents the lowest dilution of a compound at which bacteria fail to grow.

[2] = system: Salmonella enteritidis MFBF 11945; assay: Minimum biofilm eradication assay; assay type: cell-based
Description: as §1

[3] = system: Acinetobacter baumannii MFBF 10913; assay: Minimum biofilm eradication assay; assay type: cell-based
Description: as §1

[4] = system: Enterococcus faecalis ATCC 29212; assay: Minimum biofilm eradication assay; assay type: cell-based
Description: as §1

[5] = system: Proteus mirabilis MFBF 10430; assay: Minimum biofilm eradication assay; assay type: cell-based
Description: as §1

[6] = system: Pseudomonas aeruginosa ATCC 27853; assay: Minimum biofilm eradication assay; assay type: cell-based
Description: as §1

[7] = system: Serratia marcescens ATCC 10905; assay: Minimum biofilm eradication assay; assay type: cell-based
Description: as §1

[8] = system: Bacillus subtilis ATCC 6633; assay: Minimum biofilm eradication assay; assay type: cell-based
Description: as §1

[9] = system: Staphylococcus aureus ATCC 6538; assay: Minimum biofilm eradication assay; assay type: cell-based
Description: as §1

[10] = system: Bacillus cereus ATCC 11778; assay: Minimum biofilm eradication assay; assay type: cell-based
Description: as §1

[11] = system: Escherichia coli ATCC 10536; assay: Minimum biofilm eradication assay; assay type: cell-based
Description: as §1

[12] = system: Candida albicans ATCC 90028; assay: In vitro antifungal susceptibility testing (MIC determination); assay type: cell-based; settings: ATCC90028
in vitro = settings: African green monkey
MM.1S (multiple myeloma) = assay: Antiproliferative screening (cytostatic activity); assay type: cell-based; settings: Homo sapiens, MM1.S; 72 h, IncuCyte imaging; read-out: IC50 MM.1S
Description: (§2) All human tumor cell lines were acquired from the American Type Culture Collection (ATCC, Manassas, VA, USA), except for the DND-41 cell line which was purchased from the Deutsche Sammlung von Mikroorganismen und Zellkulturen (DSMZ Leibniz-Institut, Braunschweig, Germany) and the Hap1 cell line which was purchased from Horizon Discovery (Waterbeach, UK). […] All media were supplemented with 10% FBS (HyClone, GE Healthcare Life Sciences, USA). […] After overnight incubation, cells were treated with test compounds at four different concentrations ranging from 100 to 0.8 µM. […] Images were taken every 3 h, with one field image per well under 10× magnification. All compounds were tested with duplicate data points and averaged.

[13] = system: NCI-H460 (lung carcinoma); assay: Antiproliferative screening (cytostatic activity); assay type: cell-based; settings: Homo sapiens, NCI-H460; 72 h, IncuCyte imaging; read-out: IC50 NCI-H460
Description: as §2

[14] = system: HCT-116 (colorectal carcinoma); assay: Antiproliferative screening (cytostatic activity); assay type: cell-based; settings: Homo sapiens, HCT-116; 72 h, IncuCyte imaging; read-out: IC50 HCT-116
Description: as §2

[15] = system: K-562 (chronic myeloid leukemia); assay: Antiproliferative screening (cytostatic activity); assay type: cell-based; settings: Homo sapiens, K562; 72 h, IncuCyte imaging; read-out: IC50 K-562
Description: as §2

[16] = system: Capan-1 (pancreatic adenocarcinoma); assay: Antiproliferative screening (cytostatic activity); assay type: cell-based; settings: Homo sapiens, CAPAN-1; 72 h, IncuCyte imaging; read-out: IC50 Capan-1
Description: as §2

[17] = system: Z-138 (non-Hodgkin lymphoma); assay: Antiproliferative screening (cytostatic activity); assay type: cell-based; settings: Homo sapiens, Z-138; 72 h, IncuCyte imaging; read-out: IC50 Z-138
Description: as §2

Vero cell cultures = settings: Vero cells, microscopically detectable alteration of cell morphology; unit not printed in head (EC50 columns µM)
[18] = system: broad variety of viral infections; assay: Antiviral evaluation, broad variety of viruses; assay type: cell-based; settings: Vero cells
[19] = read-out: EC50 Sindbis Virus, MTS
[20] = MTS, read-out: EC50 Punta Toro Virus, MTS

COc1cc(NC(C)CCCNC(=O)/C=C/C(=O)Nc2cccc(F)c2)c2ncccc2c1 (stereo not shown) [Compound 4a, (2E)-N-(3-Fluorophenyl)-N′-{4-[(6-methoxyquinolin-8-yl)amino]pentyl}but-2-enediamide]
EC50 (Sindbis Virus; [19]): > 50 µM | EC50 (Punta Toro Virus; [20]): > 50 µM | MBEC [1]: 12.5 µg/mL | MBEC [2]: >100 µg/mL | MBEC [3]: 6.3 µg/mL | MBEC [4]: 25 µg/mL | MBEC [5]: >100 µg/mL | MBEC [6]: 25 µg/mL | MBEC [7]: 25 µg/mL | MBEC [8]: 50 µg/mL | MBEC [9]: 12.5 µg/mL | MBEC [10]: >100 µg/mL | MBEC [11]: 100 µg/mL | MIC [12]: > 100 µg/mL | CC50 (in vitro): 46.9 µg/mL (≈ 104 µM) | IC50 (MM.1S (multiple myeloma)): 13 µM | IC50 [13]: 15.5 µM | IC50 [14]: 22.3 µM | IC50 [15]: 31.2 µM | IC50 [16]: 16.9 µM | IC50 [17]: 8.4 µM | melting point: 203 to 204 °C

COc1cc(NC(C)CCCNC(=O)/C=C/C(=O)Nc2cccc(Cl)c2)c2ncccc2c1 (stereo not shown) [Compound 4c, (2E)-N-(3-Chlorophenyl)-N′-{4-[(6-methoxyquinolin-8-yl)amino]pentyl}but-2-enediamide]
Cytotoxicity MCC (minimum cytotoxic concentration) (Vero cell cultures): 10 | EC50 (Sindbis Virus; [19]): 3 µM | EC50 (Sindbis Virus; read-out: EC50 Sindbis Virus, Visual CPE Score): > 50 µM | EC50 (Punta Toro Virus; [20]): 5.5 µM | EC50 (Punta Toro Virus; visual CPE score, read-out: EC50 Punta Toro Virus, Visual CPE Score): > 50 µM | MBEC [1]: 100 µg/mL | MBEC [2]: >100 µg/mL | MBEC [3]: 100 µg/mL | MBEC [4]: 25 µg/mL | MBEC [5]: >100 µg/mL | MBEC [6]: 50 µg/mL | MBEC [7]: >100 µg/mL | MBEC [8]: 50 µg/mL | MBEC [9]: 12.5 µg/mL | MBEC [10]: 25 µg/mL | MBEC [11]: 50 µg/mL | MIC [12]: > 100 µg/mL | CC50 (in vitro): > 50 µg/mL | selectivity index (SI), MCC and EC50 ratio [18]: 1.8–3.7 | EC50 ([18]; reovirus-1, sindbis virus and Punta Toro virus, read-out: EC50 (range over viruses)): 3.1 to 5.5 µM | IC50 (MM.1S (multiple myeloma)): > 100 µM | IC50 [13]: 43.7 µM | IC50 [14]: 73 µM | IC50 [15]: > 100 µM | IC50 [16]: 69.9 µM | IC50 [17]: 46.5 µM | melting point: 187 to 188 °C

COc1cc(NC(C)CCCNC(=O)/C=C/C(=O)Nc2ccc(C(F)(F)F)cc2)c2ncccc2c1 (stereo not shown) [Compound 4f, (2E)-N′-{4-[(6-Methoxyquinolin-8-yl)amino]pentyl}-N-[4-(trifluoromethyl)phenyl]but-2-enediamide]
EC50 (Sindbis Virus; [19]): > 50 µM | EC50 (Punta Toro Virus; [20]): > 50 µM | MBEC [1]: 50 µg/mL | MBEC [2]: >100 µg/mL | MBEC [3]: 100 µg/mL | MBEC [4]: 50 µg/mL | MBEC [5]: >100 µg/mL | MBEC [6]: 25 µg/mL | MBEC [7]: >100 µg/mL | MBEC [8]: >100 µg/mL | MBEC [9]: 25 µg/mL | MBEC [10]: >100 µg/mL | MBEC [11]: 50 µg/mL | MIC [12]: > 100 µg/mL | CC50 (in vitro): > 50 µg/mL | IC50 (MM.1S (multiple myeloma)): > 100 µM | IC50 [13]: > 100 µM | IC50 [14]: > 100 µM | IC50 [15]: > 100 µM | IC50 [16]: 79.4 µM | IC50 [17]: > 100 µM | melting point: 189 to 191 °C

COc1cc(NC(C)CCCNC(=O)/C=C/C(=O)Nc2ccc(F)cc2)c2ncccc2c1 (stereo not shown) [Compound 4b, (2E)-N-(4-Fluorophenyl)-N′-{4-[(6-methoxyquinolin-8-yl)amino]pentyl}but-2-enediamide]
EC50 (Sindbis Virus; [19]): > 50 µM | EC50 (Punta Toro Virus; [20]): > 50 µM | MBEC [1]: 25 µg/mL | MBEC [2]: >100 µg/mL | MBEC [3]: 25 µg/mL | MBEC [4]: 25 µg/mL | MBEC [5]: 25 µg/mL | MBEC [6]: 12.5 µg/mL | MBEC [7]: >100 µg/mL | MBEC [8]: 25 µg/mL | MBEC [9]: 12.5 µg/mL | MBEC [10]: 25 µg/mL | MBEC [11]: 50 µg/mL | MIC [12]: > 100 µg/mL | CC50 (in vitro): > 50 µg/mL | IC50 (MM.1S (multiple myeloma)): > 100 µM | IC50 [13]: 29.1 µM | IC50 [14]: > 100 µM | IC50 [15]: 70.5 µM | IC50 [16]: 50.5 µM | IC50 [17]: > 100 µM | melting point: 226 to 227 °C

COc1cc(NC(C)CCCNC(=O)/C=C/C(=O)Nc2ccc(Cl)cc2)c2ncccc2c1 (stereo not shown) [Compound 4d, (2E)-N-(4-Chlorophenyl)-N′-{4-[(6-methoxyquinolin-8-yl)amino]pentyl}but-2-enediamide]
EC50 (Sindbis Virus; [19]): > 50 µM | EC50 (Punta Toro Virus; [20]): > 50 µM | MBEC [1]: 50 µg/mL | MBEC [2]: >100 µg/mL | MBEC [3]: 100 µg/mL | MBEC [4]: 50 µg/mL | MBEC [5]: >100 µg/mL | MBEC [6]: >100 µg/mL | MBEC [7]: >100 µg/mL | MBEC [8]: >100 µg/mL | MBEC [9]: 25 µg/mL | MBEC [10]: >100 µg/mL | MBEC [11]: 50 µg/mL | MIC [12]: 12.5 µg/mL (≈ 26.8 µM) | CC50 (in vitro): > 50 µg/mL | IC50 (MM.1S (multiple myeloma)): > 100 µM | IC50 [13]: > 100 µM | IC50 [14]: > 100 µM | IC50 [15]: > 100 µM | IC50 [16]: 91.8 µM | IC50 [17]: > 100 µM | melting point: 223 to 226 °C
